Measurements taken from patent US12102685B2, “Immodulator peptides covalently modified with small molecules” (priority 2020, dated 2024).
Peptide text beside a SMILES is read from it.

Test: FITC-PI(4,5)P2 binding to plate-bound peptide with calcium (x9A)
Experimental: Immodulator peptides IM1, IM3 and IM5 (400 ng/well) in PBS were bound to streptavidin-coated 96-well plates at room temperature for 60 minutes, in the presence or absence of 500 uM calcium chloride. Each well also received 200 ng cold PPI plus 10 ng FITC-labeled PI(4,5)P2 or PI(4)P1. The tables below show the relative fluorescence (with/without calcium background) expressed as a percentage of the highest binder, FITC-PI(4,5)P2+cold PI(3,5)P2, which was 2,496 fluorescence units. Background binding without calcium was, in all cases, 200-300 fluorescence units.

CSCC[C@H](NC(=O)[C@H](CO)NC(=O)[C@@H](NC(=O)[C@H](CCC(=O)O)NC(=O)[C@H](CS)NC(=O)[C@H](CCC(N)=O)NC(=O)[C@H](CCCNC(=N)N)NC(=O)[C@H](CO)NC(=O)[C@H](Cc1c[nH]cn1)NC(=O)[C@H](Cc1ccc(O)cc1)NC(=O)[C@H](Cc1ccccc1)NC(=O)CNC(=O)[C@H](CC(N)=O)NC(=O)[C@@H](N)CCCCN)[C@@H](C)O)C(=O)N[C@@H](CC(=O)O)C(=O)NCC(=O)N[C@@H](CCC(=O)O)C(=O)N[C@@H](C)C(=O)NCC(=O)N[C@@H](CC(C)C)C(=O)N[C@@H](CS)C(=O)N[C@@H](Cc1c[nH]c2ccccc12)C(=O)O [IM1] (H-KNGFYHSRQCETSMDGEAGLCW-OH; N-terminus and C-terminus assumed)
relative fluorescence, FITC-PI(4,5)P2 bound (cold PPI: 3,4,5-P3, calcium): 0.1 percentage of the highest binder | relative fluorescence, FITC-PI(4,5)P2 bound (cold PPI: 3,4-P2, calcium): 1.1 percentage of the highest binder | relative fluorescence, FITC-PI(4,5)P2 bound (cold PPI: 3,5-P2, calcium): 4.3 percentage of the highest binder | relative fluorescence, FITC-PI(4,5)P2 bound (cold PPI: 3-P1, calcium): 3.1 percentage of the highest binder | relative fluorescence, FITC-PI(4,5)P2 bound (cold PPI: 4,5-P2, calcium): 0.8 percentage of the highest binder | relative fluorescence, FITC-PI(4,5)P2 bound (cold PPI: 4-P1, calcium): 1.3 percentage of the highest binder | relative fluorescence, FITC-PI(4,5)P2 bound (cold PPI: 5-P1, calcium): 0.5 percentage of the highest binder | relative fluorescence, FITC-PI(4,5)P2 bound (cold PPI: None, 500 uM calcium chloride): 1.6 percentage of the highest binder
